Publication PMC11995724, “Antibiotic target discovery by integrated phenotypic and activity-based profiling of electrophilic fragments” (Cell chemical biology, 2025)

Test: in vitro
Details: human, hek293t cells
In the case of O=C(CCl)NCc1ccc(NC(=O)C2CC2)cc1 [6-E20, N-{4-[(2-chloroacetamido)methyl]phenyl}cyclopropanecarboxamide], the viability at 48 h, 25 µM is reported as 2.09%. For C=CC(=O)NCc1nonc1C [2-H07, N-[(4-methyl-1,2,5-oxadiazol-3-yl)methyl]prop-2-enamide], the viability at 48 h, 25 µM was 57.6%. C=CC(=O)N1CCC(Cc2ccnn2C)CC1 [2-C19, 1-{4-[(1-methyl-1H-pyrazol-5-yl)methyl]piperidin-1-yl}prop-2-en-1-one] showed a viability at 48 h, 25 µM of 74.8%. For CCN(CC)C(=O)c1ccc(NC(=O)CCl)cc1 [4-C05, 4-(2-chloroacetamido)-N,N-diethylbenzamide], the viability at 48 h, 25 µM was 0.463%. Work on O=C(CCl)NCC(=O)Nc1nccs1 [5-G22, 2-chloro-N-{[(1,3-thiazol-2-yl)carbamoyl]methyl}acetamide] yielded a viability at 48 h, 25 µM of 3.47%. In the case of Cc1cc(C(=O)CCl)c(C)n1CCC(C)C [10-L03, 2-chloro-1-[2,5-dimethyl-1-(3-methylbutyl)-1H-pyrrol-3-yl]ethan-1-one], the viability at 48 h, 25 µM is reported as 76.2%. C=CC(=O)NCC(F)(F)c1cccnc1 [1-O12, N-[2,2-difluoro-2-(pyridin-3-yl)ethyl]prop-2-enamide] gave a viability at 48 h, 25 µM of 111%. For C=CC(=O)Nc1c(C)cccc1SCC(=O)N(C)C [1-E13, N-(2-{[(dimethylcarbamoyl)methyl]sulfanyl}-6-methylphenyl)prop-2-enamide], the viability at 48 h, 25 µM was 78.8%. CC(Cl)C(=O)N1CCCN(C(=O)c2cc(Cl)cn2C)CC1 (stereo not shown) [7-N07, 2-chloro-1-[4-(4-chloro-1-methyl-1H-pyrrole-2-carbonyl)-1,4-diazepan-1-yl]propan-1-one] showed a viability at 48 h, 25 µM of 94.5%. In the case of COc1ccc(C(=O)CCl)c(OC)c1 [10-G18, 2-chloro-1-(2,4-dimethoxyphenyl)ethan-1-one], the viability at 48 h, 25 µM is reported as 66.7%. For CCC(=O)Nc1ccc(C(=O)CCl)cc1 [10-C03, N-[4-(2-chloroacetyl)phenyl]propanamide], the viability at 48 h, 25 µM was 74.1%. Work on COc1ccc(C=C(C#N)C(=O)Nc2cccc3ccccc23)cc1 [9-E10, 2-cyano-3-(4-methoxyphenyl)-N-(naphthalen-1-yl)prop-2-enamide] yielded a viability at 48 h, 25 µM of 105%. COc1cc(C=C(C#N)C(=O)Nc2cccc3ncccc23)ccc1O [9-F22, 2-cyano-3-(4-hydroxy-3-methoxyphenyl)-N-(quinolin-5-yl)prop-2-enamide] gave a viability at 48 h, 25 µM of 112%. In the case of CC(Cl)C(=O)N1CCN(c2nccc3sccc23)CC1 (stereo not shown) [7-G10, 2-chloro-1-(4-{thieno[3,2-c]pyridin-4-yl}piperazin-1-yl)propan-1-one], the viability at 48 h, 25 µM is reported as 83.5%. O=C(CCl)N(c1ccccc1)C1CCCCC1 [4-L18, 2-chloro-N-cyclohexyl-N-phenylacetamide] gave a viability at 48 h, 25 µM of 0.523%. With CCOC(=O)C1=C(C)NC(=O)N(C(=O)CCl)C1c1ccccc1 (stereo not shown) [5-I05, ethyl 3-(2-chloroacetyl)-6-methyl-2-oxo-4-phenyl-1,2,3,4-tetrahydropyrimidine-5-carboxylate] the viability at 48 h, 25 µM was 44.7%. Work on O=C(CCl)NC1CCN(C(=O)C2COc3ccccc3O2)CC1 (stereo not shown) [5-C09, 2-chloro-N-[1-(2,3-dihydro-1,4-benzodioxine-2-carbonyl)piperidin-4-yl]acetamide] yielded a viability at 48 h, 25 µM of 1.13%. Work on CC(Cl)C(=O)N(C)Cc1ccnn1C (stereo not shown) [5-L17, 2-chloro-N-methyl-N-[(1-methyl-1H-pyrazol-5-yl)methyl]propanamide] yielded a viability at 48 h, 25 µM of 134%. For N#CC(=CNc1ccc(F)cc1)C(=O)NCc1ccccc1 [8-E20, N-benzyl-2-cyano-3-[(4-fluorophenyl)amino]prop-2-enamide], the viability at 48 h, 25 µM was 98.3%. Cc1ccc(C)c(C=C(C#N)C(=O)NC(C)C)c1 [9-O22, 2-cyano-3-(2,5-dimethylphenyl)-N-(propan-2-yl)prop-2-enamide] gave a viability at 48 h, 25 µM of 125%. With Cc1cc(C(=O)CCl)c(C)n1-c1ccccn1 [10-C16, 2-chloro-1-[2,5-dimethyl-1-(pyridin-2-yl)-1H-pyrrol-3-yl]ethan-1-one] the viability at 48 h, 25 µM was 79.6%. C=CC(=O)NC1CCCN(Cc2ccccc2)C1=O (stereo not shown) [2-L13, N-(1-benzyl-2-oxopiperidin-3-yl)prop-2-enamide] showed a viability at 48 h, 25 µM of 60.1%.
